Results as given in patent US6440445B1, “Methods and compounds for treatment of abnormal uterine bleeding” (Brigham & Women's Hospital, priority 1996, dated 2002).

Assays:
human fibroblasts = details: in response to bFGF, TGFB and PDGF; cited from earlier work
leiomyoma cells [1] = assay: Pirfenidone: cell proliferation (tritiated thymidine incorporation, cell number), leiomyoma cells; format: cell-based; details: p<0.01
Excerpt: (§1) We have also discovered that pirfenidone is a response-blocking compound. Pirfenidone is an antifibrotic agent which is being investigated for use in patients with pulmonary fibrosis. […] Possible cytotoxic effects were examined using lactate dehydrogenase assays and trypan blue exclusion.

myometrial cells [2] = assay: Cytotoxicity (lactate dehydrogenase assay, trypan blue exclusion), myometrial cells; format: cell-based
Excerpt: as §1
(§2) Additionally, the effect of pirfenidone on cell proliferation and the percentage of dead cells was examined, and the results from the two experiments are shown in FIG. 12.

leiomyoma cells [3] = assay: Cytotoxicity (lactate dehydrogenase assay, trypan blue exclusion), leiomyoma cells; format: cell-based
Excerpt: as §1, §2

myometrial cells [4] = assay: Collagen type I and III messenger RNA expression by RNA blotting, myometrial cells; format: cell-based
leiomyoma cells [5] = assay: Collagen type I and III messenger RNA expression by RNA blotting, leiomyoma cells; format: cell-based
myometrial cells [6] = assay: Pirfenidone: cell proliferation (tritiated thymidine incorporation, cell number), myometrial cells; format: cell-based; details: p<0.01
Excerpt: as §1

[7] = system: FGF / specific cell surface receptors; details: cited from earlier work
[8] = system: vascular smooth muscle cells, T cells, and fibroblasts; details: wide variety of cells; cited from earlier work
[9] = system: cultured human myometrial smooth muscle cells; assay: DNA synthesis (tritiated thymidine incorporation) in cultured myometrial smooth muscle cells; format: cell-based; details: for basal and serum-stimulated DNA synthesis (tritiated thymidine incorporation): interferon 10, 100, 1000 U/ml, 24 hr, serum-free 0.1% BSA or 10% fetal bovine serum
Method: (§3) Myometrial and leiomyoma cells from the same patients were used at first passage for proliferation assays. 10,000 cells were plated per well in 96-well plates in medium+10 % serum. Cells were cultured for three days and then placed in serum-free medium for 48 hr to attain quiescence. Interferon-α was tested at the following doses in 10% serum-containing medium; 0, 10, 100 and 1000 U/ml for a period of 24 hr. Tritiated thymidine (luCi/ml) was added to the culture wells for the final 4-6 hr of incubation, the medium removed, cells harvested and counted for thymidine incorporation.
(§4) Effects on basal DNA synthesis were tested using cells cultured in serum-free medium containing only 0.1% BSA while effects on serum-stimulated cells were assessed using cells cultured in medium with 10% fetal bovine serum.
(§5) FIGS. 6c and 6d show the effects of interferon-α on bFGF induced increases in DNA synthesis by uterine myometrial and leiomyoma cells, respectively. Cells were treated with either medium+10% serum of various concentrations of bFGF (0.5 ng/ml, 1.0 ng/ml, 5.0 ng/m. and 10 ng/ml) to compare mitogenic effects. Cells cultured in serum were also treated with interferon-α at 10, 100 and 1000 U/ml, while cells cultured in the various concentrations of bFGF were treated with 100 U/ml of interferon α.

uterine stromal cells = assay: Proliferation of uterine stromal cells (cell counts); format: cell-based; details: only in the presence of progesterone (10 ng/ml bFGF + 100 nm MPA); 7 days
Method: Stromal cells were used at the first passage and were plated into 100 mm dishes (200,000/dish) in serum-containing medium. The following day, cells were rinsed and transferred to serum-free medium containing insulin, transferrin and selenium. Cells remained in this medium for 48 hr to induce quiescence and then received fresh serum-free medium with one of the following treatments: ITS (medium containing only insulin, transferin, and selenium), ITS+10% fetal bovine serum, MPA (ITS+100 nm medroxy progesterone acetate), E2 (ITS+10 nm estradiol 17-beta), bFGF (ITS+10 ng/ml bFGF), bFGF/E2/MPA (ITS+100 nm MPA+10 nm estradiol+10 ng/ml bFGF), bFGF+2% fetal bovine serum (ITS+10 ng/ml bFGF+2% fetal bovine serum), bFGF+MPA (ITS+10 ng/ml bFGF+100 nm MPA) and bFGF+E2 (TS+10 ng/ml bFGF+10 nm estradiol). Cells were treated for a total of 7 days with cell counts performed on days 2, 4 and 7.

smooth muscle cell = details: also certain tumor cells; cited from earlier work
[10] = system: endometrial stromal cells; assay: DNA synthesis in endometrial stromal cells; format: cell-based
Excerpt: Interferons blocked both bFGF and serum-stimulated DNA synthesis in these cells. […] The results also show the effects of increasing concentrations of interferon-alpha on serum stimulated DNA synthesis.
The results also show the effects of increasing concentrations of interferon-alpha (10, 100 and 1000 U/ml) on serum (2%) stimulated DNA synthesis.

[11] = system: cultured human leiomyoma smooth muscle cells; assay: DNA synthesis (tritiated thymidine incorporation) in cultured leiomyoma smooth muscle cells; format: cell-based; details: for basal and serum-stimulated DNA synthesis (tritiated thymidine incorporation): interferon 10, 100, 1000 U/ml, 24 hr, serum-free 0.1% BSA or 10% fetal bovine serum
Method: as §3, §4, §5

[12] = bFGF 0.5-10 ng/ml with 100 U/ml interferon

Cc1ccc(=O)n(-c2ccccc2)c1 [pirfenidone, 5-methyl-1-phenyl-2-(1H)-pyridone]
fibroblast proliferation in vitro (human fibroblasts): inhibit fibroblast proliferation | cell proliferation (leiomyoma cells [1]): dose dependent inhibition | lactate dehydrogenase (LDH) levels (myometrial cells [2]): No significant effects | cytotoxic effect on the cells (myometrial cells [2]; at the doses tested): no cytotoxic effect | percentage of dead cells (myometrial cells [2]; only at 1.0 mg/ml, p<0.05): significant increase | lactate dehydrogenase (LDH) levels (leiomyoma cells [3]): No significant effects | cytotoxic effect on the cells (leiomyoma cells [3]; at the doses tested): no cytotoxic effect | percentage of dead cells (leiomyoma cells [3]; only at 1.0 mg/ml, p<0.05): significant increase | levels of RNA for collagen type I (myometrial cells [4]): reduced | levels of RNA for collagen type III (myometrial cells [4]): reduced | levels of RNA for collagen type I (leiomyoma cells [5]): reduced | levels of RNA for collagen type III (leiomyoma cells [5]): reduced | cell proliferation (myometrial cells [6]): dose dependent inhibition

Cc1ccc(C(=O)Nc2ccc(S(=O)(=O)O)c3cc(S(=O)(=O)O)cc(S(=O)(=O)O)c23)cc1NC(=O)c1cccc(NC(=O)Nc2cccc(C(=O)Nc3cc(C(=O)Nc4ccc(S(=O)(=O)O)c5cc(S(=O)(=O)O)cc(S(=O)(=O)O)c45)ccc3C)c2)c1 [suramin]
binding of FGF to specific cell surface receptors [7]: interfere with the ability of FGFs to bind | FGF induced proliferation [8]: very potent inhibitor

bFGF: basic fibroblast growth factor, angiogenic growth factor
effect of growth factor on DNA synthesis ([9]; bFGF 0.5-10 ng/ml): increase in DNA synthesis | proliferation of uterine stromal cells (cell number) (uterine stromal cells): stimulates the proliferation

heparin
smooth muscle cell proliferation (smooth muscle cell): very good inhibitors | binding of FGF to specific cell surface receptors [7]: inhibit FGF binding

interferon-α
serum-stimulated DNA synthesis ([10]; 2% serum, interferon 10, 100, 1000 U/ml): blocked | bFGF stimulated DNA synthesis ([10]; bFGF 0.1-5 ng/ml, 100 U/ml interferon): blocked | bFGF induced DNA synthesis [11, 12]: inhibitory effect | basal and serum-stimulated DNA synthesis (tritiated thymidine incorporation) [11]: dose-dependent inhibition | basal and serum-stimulated DNA synthesis (tritiated thymidine incorporation) ([11]; listed as interferon alpha): tritiated thymidine incorporation decreases | bFGF induced DNA synthesis [9, 12]: abolished the stimulating effect | basal and serum-stimulated DNA synthesis (tritiated thymidine incorporation) [9]: dose-dependent inhibition | basal and serum-stimulated DNA synthesis (tritiated thymidine incorporation) ([9]; listed as interferon alpha): tritiated thymidine incorporation decreases
